From the supplement of paper PMC10307832

Columns and labels:
Assay in all cases: relative viability (nuclei count vs DMSO), 5 days (fraction); higher = more cells survive
[1] = compound: Cc1ccc2nc(NCCN)c3ncc(C)n3c2c1 + Cc1cc(Nc2cc(N3CCN(C)CC3)nc(Sc3ccc(NC(=O)C4CC4)cc3)n2)n[nH]1 [Tozasertib] (partner 0.1 µM)
In short: (§1)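 Relative viability was taken as the ratio of nuclei in treated wells to nuclei in vehicle wells. Lung cancer cell lines in 1536-well plates received compounds by pin tool one day after seeding, either one drug alone or a fixed anchor-drug dose plus five library-drug doses (not always all listed) in √10 steps. Nuclei were counted on 4× images after 5 days of treatment, and values are medians of duplicate plates.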

[2] = compound: Cc1ccc2nc(NCCN)c3ncc(C)n3c2c1 + N=C(N)NC(=N)NCCc1ccccc1 [Phenformin] (partner 250 µM)
In short: as §1

[3] = compound: O=C(/C=C/c1ccccc1)NC(NC(=S)Nc1cccc2cccnc12)C(Cl)(Cl)Cl [Salubrinal] + CC(C)C[C@H](NC(=O)[C@H](Cc1ccccc1)NC(=O)c1cnccn1)B(O)O [Bortezomib] (partner 0.002 µM)
In short: as §1

[4] = compound: O=C(/C=C/c1ccccc1)NC(NC(=S)Nc1cccc2cccnc12)C(Cl)(Cl)Cl [Salubrinal] + CS(=O)(=O)CCNCc1ccc(-c2ccc3ncnc(Nc4ccc(OCc5cccc(F)c5)c(Cl)c4)c3c2)o1 [Lapatinib] (partner 2 µM)
In short: as §1

Cell Line	relative viability ([1]; first compound 0.04 µM)	relative viability ([1]; first compound 0.1265 µM)	relative viability ([1]; first compound 0.4 µM)	relative viability ([1]; first compound 1.265 µM)	relative viability ([1]; first compound 4 µM)	relative viability ([2]; first compound 0.04 µM)	relative viability ([2]; first compound 0.1265 µM)	relative viability ([2]; first compound 0.4 µM)	relative viability ([2]; first compound 1.265 µM)	relative viability ([2]; first compound 4 µM)	relative viability ([3]; first compound 0.08 µM)	relative viability ([3]; first compound 0.253 µM)	relative viability ([3]; first compound 0.8 µM)	relative viability ([3]; first compound 2.53 µM)	relative viability ([3]; first compound 8 µM)	relative viability ([4]; first compound 0.08 µM)	relative viability ([4]; first compound 0.253 µM)	relative viability ([4]; first compound 0.8 µM)	relative viability ([4]; first compound 2.53 µM)	relative viability ([4]; first compound 8 µM)
HCC-15	0.382	0.412	0.439	0.345	0.247	0.464	0.501	0.48	0.429	0.379	1.13	0.804	1.14	1.15	0.997	0.902	0.736	1	0.88	0.875
HCC-44	1.06	0.896	1.04	0.753	0.645	0.186	0.247	0.157	0.184	0.146	0.799	0.817	0.997	0.922	0.86	0.91	0.743	1.1	0.97	0.939
HCC-78	0.4	0.375	0.291	0.403	0.388	0.81	0.694	0.71	0.697	0.601	0.516	0.579	0.521	0.537	0.427	0.4	0.795	1.06	0.788	0.832
HCC-366	0.119	0.135	0.215	0.116	0.221	0.588	0.609	0.638	0.606	0.537	1.21	0.608	1.22	1.08	1.05	1.23	0.796	1.12	1.01	1.08
HCC-827	0.465	0.433	0.454	0.459	0.425	0.409	0.402	0.401	0.39	0.384	0.98	0.955	1.23	1.05	1.07	0.191	0.196	0.171	0.235	0.165
HOP-62	0.383	0.379	0.396	0.367	0.402	0.676	0.643	0.575	0.657	0.653	0.392	0.576	0.601	0.874	1.04	1.06	0.927	1.01	1.16	0.968
LC-2-ad	0.445	0.491	0.533	0.387	0.42	0.637	0.546	0.55	0.547	0.44	0.992	0.92	1.16	1	1.02	1.07	0.608	1.1	0.971	0.868
LCLC-97TM1	0.201	0.215	0.177	0.218	0.187	0.38	0.427	0.435	0.465	0.435	0.995	–	1.22	0.626	0.637	1.03	0.799	0.842	–	0.857
LOU-NH91	0.654	0.628	0.638	0.626	0.617	0.729	0.693	0.756	0.654	0.664	0.481	0.406	0.55	0.505	0.477	0.71	0.776	0.776	0.778	0.752
LU99A	0.308	0.292	0.248	0.298	0.263	0.797	0.78	0.673	0.892	0.798	1.3	1.31	1.37	0.971	0.909	1.17	1.15	1.13	0.945	0.594
LXF-289	0.186	0.192	0.163	0.178	0.212	0.528	0.546	0.543	0.486	0.524	1.06	0.654	1.06	0.969	0.851	0.984	0.778	0.913	0.931	0.804
NCI-H23	0.707	0.403	0.451	0.301	0.422	0.797	0.858	0.704	0.786	0.754	1.25	0.871	1.2	1.04	1.16	1.08	1.1	1.34	0.955	1.36
NCI-H322M	0.553	0.452	0.528	0.547	0.462	0.882	0.701	0.767	0.798	0.759	1.33	1.15	1.26	1.22	1.19	0.606	0.589	0.669	0.657	0.517
NCI-H460	0.453	0.481	0.603	0.312	0.386	0.515	0.512	0.525	0.539	0.394	1.66	0.452	1.4	1.08	1.21	1.6	0.445	1.76	0.948	0.75
NCI-H520	0.476	0.458	0.371	0.424	0.405	0.633	0.573	0.445	0.517	0.478	0.881	0.439	0.793	0.633	0.435	0.921	0.767	1.25	0.847	0.769
NCI-H596	1.16	1.01	0.922	0.883	0.863	0.695	0.787	0.644	0.614	0.826	1.1	0.807	1.01	1.13	1	1.05	1.02	1.21	1.08	0.887
NCI-H647	0.246	0.306	0.356	0.281	0.128	0.758	0.533	0.494	0.539	0.476	1.05	1.37	1.2	1.06	0.792	1.31	0.687	1.31	1.2	0.829

Cell Line	relative viability ([1]; first compound 0.04 µM)	relative viability ([1]; first compound 0.1265 µM)	relative viability ([1]; first compound 0.4 µM)	relative viability ([1]; first compound 1.265 µM)	relative viability ([1]; first compound 4 µM)	relative viability ([2]; first compound 0.04 µM)	relative viability ([2]; first compound 0.1265 µM)	relative viability ([2]; first compound 0.4 µM)	relative viability ([2]; first compound 1.265 µM)	relative viability ([2]; first compound 4 µM)	relative viability ([3]; first compound 0.08 µM)	relative viability ([3]; first compound 0.253 µM)	relative viability ([3]; first compound 0.8 µM)	relative viability ([3]; first compound 2.53 µM)	relative viability ([3]; first compound 8 µM)	relative viability ([4]; first compound 0.08 µM)	relative viability ([4]; first compound 0.253 µM)	relative viability ([4]; first compound 0.8 µM)	relative viability ([4]; first compound 2.53 µM)	relative viability ([4]; first compound 8 µM)
NCI-H650	0.725	0.727	0.752	0.615	0.746	0.462	0.476	0.437	0.441	0.425	0.877	0.724	1.23	0.997	0.817	0.696	0.84	1.42	1.05	0.822
NCI-H661	0.358	0.353	0.366	0.321	0.372	0.26	0.375	0.254	0.293	0.308	0.876	0.781	0.714	0.821	0.865	0.609	0.497	0.248	0.467	0.412
NCI-H727	0.599	0.688	0.704	0.578	0.641	0.436	–	0.527	0.555	0.64	0.748	0.504	0.983	0.862	0.741	1.01	0.848	0.899	0.812	0.903
NCI-H838	0.259	0.287	0.278	0.304	0.26	0.655	0.602	0.587	0.543	0.568	0.82	0.749	0.983	0.911	0.608	1.1	0.914	1.23	1.03	0.674
NCI-H1355	0.565	0.517	0.611	0.546	0.553	0.484	0.476	0.441	0.391	0.42	1.32	1.15	1.2	1.32	1.22	1.09	1.03	0.996	1.01	1.03
NCI-H1437	0.412	0.399	0.39	0.364	0.368	0.289	0.298	0.327	0.298	0.278	0.667	0.474	0.68	0.535	0.465	0.925	0.763	0.94	0.878	0.653
NCI-H1650	0.434	0.431	0.513	0.439	0.296	0.442	0.488	0.455	0.414	0.464	0.217	0.227	0.256	0.173	0.243	0.805	0.817	0.9	0.731	0.953
NCI-H1651	0.625	0.71	0.652	0.677	0.718	0.351	0.273	0.315	0.358	0.352	0.972	0.925	0.994	0.925	0.921	1.01	0.77	1.07	–	0.816
NCI-H1666	0.665	0.676	0.677	0.502	0.544	0.574	0.573	0.521	0.495	0.535	0.858	0.732	0.746	0.776	0.984	0.582	0.56	0.767	0.58	0.691
NCI-H1734	0.275	0.258	0.211	0.237	0.243	0.425	0.417	0.355	0.38	0.389	0.9	0.941	1.11	0.969	0.981	1.11	1.08	1.18	1.05	1.02
NCI-H1755	0.552	0.565	0.536	0.511	0.524	0.661	0.665	0.581	0.625	0.583	1.06	0.968	1.05	1	0.945	1.24	0.794	1.11	1.04	0.966
NCI-H1915	0.481	0.492	–	0.432	0.416	0.359	0.384	–	0.377	0.359	0.98	0.56	1.09	1.03	0.954	0.981	0.683	1.04	1	0.963
NCI-H1975	0.818	0.866	0.824	0.639	0.56	0.415	0.394	0.432	0.414	0.355	0.419	0.362	0.353	0.344	0.355	1.04	0.594	0.967	0.928	0.798
NCI-H1993	0.602	0.593	0.543	0.566	0.581	0.506	0.514	0.591	0.552	0.495	1.09	1.05	1.31	1.01	1.28	0.887	0.866	0.814	1.14	0.9
NCI-H2009	0.754	0.725	0.72	0.734	0.541	0.514	0.399	0.489	0.401	0.393	1.07	1.05	1.01	1.01	0.771	0.997	1.02	0.914	0.872	0.793
NCI-H2023	0.333	0.395	0.361	0.32	0.251	0.466	0.409	0.434	0.437	0.349	1.2	1.03	0.967	1.02	0.858	0.747	0.936	1.04	0.814	0.606
